Measured values: patent publication US11535643B2, “Macrolides with modified desosamine sugars and uses thereof” (President and Fellows of Harvard College, priority 2015, dated 2022)
Values after ≈ are worked out from the molar mass of the structure shown. Read-outs that look alike come from different tables or passages of the source.

What was measured:
Format in all cases: cell-based
A. baumannii = assay: Broth dilution MIC determination (CLSI) against A. baumannii strains; conditions: Acinetobacter baumannii
Summary of the method: (§1)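 MICs were determined by CLSI standard broth dilution against several strains per species, including multidrug-resistant and macrolide-resistant strains. Azithromycin and solithromycin served as control compounds.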

S. pyogenes = assay: Broth dilution MIC determination (CLSI) against S. pyogenes strains; conditions: Streptococcus pyogenes
Summary of the method: as §1

H. influenzae = assay: Broth dilution MIC determination (CLSI) against H. influenzae strains; conditions: Haemophilus influenzae
Description: Minimum inhibitory concentrations (MICs) for macrolides described herein have been determined for unique strains of S. aureus, S. pneumoniae, S. pyogenes, E. faecalis, E. coli, A. baumannii, K. pneumoniae, P. aeruginosa, and H. influenzae, including several multidrug-resistant strains, with a special focus on macrolide resistant mechanisms. Azithromycin and solithromycin were included as control compounds. CLSI standard procedures for broth dilution MIC determination were used. Data for exemplary compounds described herein is shown in Tables M1-M7 and in Tables N1-N4.

P. aeruginosa = assay: Broth dilution MIC determination (CLSI) against P. aeruginosa strains; conditions: Pseudomonas aeruginosa
Summary of the method: as §1

E. faecalis = assay: Broth dilution MIC determination (CLSI) against E. faecalis strains; conditions: Enterococcus faecalis
Summary of the method: as §1

S. aureus = assay: Broth dilution MIC determination (CLSI) against S. aureus strains; conditions: Staphylococcus aureus
Summary of the method: as §1

S. pneumoniae = assay: Broth dilution MIC determination (CLSI) against S. pneumoniae strains; conditions: Streptococcus pneumoniae
Summary of the method: as §1

E. coli = assay: Broth dilution MIC determination (CLSI) against E. coli strains; conditions: Escherichia coli
Summary of the method: as §1

K. pneumoniae = assay: Broth dilution MIC determination (CLSI) against K. pneumoniae strains; conditions: Klebsiella pneumoniae
Summary of the method: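 Azithromycin and solithromycin served as controls; MICs were obtained by standard CLSI broth dilution on a strain panel including multidrug-resistant and macrolide-resistant isolates.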

[1] = ATCC19606, ATCC19606, read-out: MIC A. baumannii ATCC19606
[2] = IMP-4, read-out: MIC A. baumannii IMP-4
[3] = chromosomal class C, read-out: MIC A. baumannii chromosomal class C
[4] = imipenem-resistant, read-out: MIC A. baumannii imipenem-resistant
[5] = ATCC19615, ATCC19615, read-out: MIC S. pyogenes ATCC19615
[6] = macrolide-resistant, read-out: MIC S. pyogenes macrolide-resistant
[7] = ATCC49247, ATCC49247, read-out: MIC H. influenzae ATCC49247
[8] = erythro > 4, azithro 1, read-out: MIC H. influenzae erythro > 4, azithro 1
[9] = ATCC27853, read-out: MIC P. aeruginosa ATCC27853
[10] = read-out: MIC P. aeruginosa HPA101-1477
[11] = ATCC29212, ATCC29212, read-out: MIC E. faecalis ATCC29212
[12] = Vancomycin-resistant, read-out: MIC E. faecalis Vancomycin-resistant
[13] = ATCC29213, ATCC29213, read-out: MIC S. aureus ATCC29213
[14] = MRSA / USA100, MRSA: USA100, read-out: MIC S. aureus MRSA: USA100
[15] = MRSA / USA300, MRSA: USA300, read-out: MIC S. aureus MRSA: USA300
[16] = USA600, USA600, GISA, read-out: MIC S. aureus USA600, GISA
[17] = read-out: MIC S. aureus erm A genotype
[18] = ATCC49619, ATCC49619, read-out: MIC S. pneumoniae ATCC49619
[19] = erm B + mef A genotype, read-out: MIC S. pneumoniae erm B + mef A genotype
[20] = erm B + tet(M, O) genotype, read-out: MIC S. pneumoniae erm B + tet(M, O) genotype
[21] = ATCC25922, ATCC25922, read-out: MIC E. coli ATCC25922
[22] = read-out: MIC E. coli CTX-M-14, CTX-M-14
[23] = read-out: MIC E. coli NDM-1, NDM-1
[24] = read-out: MIC E. coli TEM-1, TEM-1
[25] = ATCC10031, ATCC10031, read-out: MIC K. pneumoniae ATCC10031
[26] = KPC-2, read-out: MIC K. pneumoniae KPC-2
[27] = SHV-12, read-out: MIC K. pneumoniae SHV-12
[28] = TEM-10, read-out: MIC K. pneumoniae TEM-10

SMILES | MIC (A. baumannii; [1]) [µg/mL] | MIC (A. baumannii; [2]) [µg/mL] | MIC (A. baumannii; [3]) [µg/mL] | MIC (A. baumannii; [4]) [µg/mL] | MIC (S. pyogenes; [5]) [µg/mL] | MIC (S. pyogenes; [6]) [µg/mL] | MIC (H. influenzae; [7]) [µg/mL] | MIC (H. influenzae; [8]) [µg/mL] | MIC (P. aeruginosa; [9]) [µg/mL] | MIC (P. aeruginosa; [10]) [µg/mL] | MIC (E. faecalis; [11]) [µg/mL] | MIC (E. faecalis; [12]) [µg/mL] | MIC (S. aureus; [13]) [µg/mL] | MIC (S. aureus; [14]) [µg/mL] | MIC (S. aureus; [15]) [µg/mL] | MIC (S. aureus; [16]) [µg/mL] | MIC (S. aureus; [17]) [µg/mL] | MIC (S. pneumoniae; [18]) [µg/mL] | MIC (S. pneumoniae; [19]) [µg/mL] | MIC (S. pneumoniae; [20]) [µg/mL] | further results
CC[C@H]1OC(=O)[C@H](C)C(=O)[C@H](C)[C@@H](O[C@@H]2OC(CN)CC(N(C)C)C2O)[C@](C)(OC)C[C@@H](C)CN[C@H](C)[C@H]2N(CCCCn3cc(-c4cccc(N)c4)nn3)C(=O)O[C@]12C (stereo partly shown) [FSM-21700] | > 32 | > 32 | > 32 | > 32 | 0.0625 (≈ 0.0741 µM) | 2 (≈ 2.37 µM) | 32 (≈ 38 µM) | 16 (≈ 19 µM) | > 32 | > 32 | 8 (≈ 9.49 µM) | > 32 | 8 (≈ 9.49 µM) | > 32 | > 32 | > 32 | 32 (≈ 38 µM) | ≤ 0.0312 | 16 | 0.0625 | MIC (S. pneumoniae; read-out: MIC S. pneumoniae mef A genotype, mef A genotype): 2 µg/mL (≈ 2.37 µM); MIC (S. pneumoniae; read-out: MIC S. pneumoniae mef A genotype, mef A genotype, first of two such columns (c3)): 0.5 µg/mL (≈ 0.593 µM); MIC (E. coli; [21]): 32 µg/mL (≈ 38 µM); MIC (E. coli; [22]): > 32 µg/mL; MIC (E. coli; [23]): 16 µg/mL (≈ 19 µM); MIC (E. coli; [24]): 8 µg/mL (≈ 9.49 µM); MIC (K. pneumoniae; [25]): 4 µg/mL (≈ 4.74 µM); MIC (K. pneumoniae; [26]): > 32 µg/mL; MIC (K. pneumoniae; [27]): > 32 µg/mL; MIC (K. pneumoniae; [28]): 32 µg/mL (≈ 38 µM)
CC[C@H]1OC(=O)[C@H](C)C(=O)[C@H](C)[C@@H](O[C@@H]2OC(Cn3cc(-c4cccc(N)n4)nn3)CC(N(C)C)C2O)[C@](C)(OC)C[C@@H](C)CN[C@H](C)[C@H]2N(CCCCn3cc(-c4cccc(N)c4)nn3)C(=O)O[C@]12C (stereo partly shown) [FSM-22124] | 16 (≈ 16.2 µM) | > 32 | 16 (≈ 16.2 µM) | 16 (≈ 16.2 µM) | ≤ 0.0312 | 2 (≈ 2.03 µM) | 2 (≈ 2.03 µM) | 1 (≈ 1.01 µM) | > 32 | > 32 | 0.25 (≈ 0.253 µM) | > 32 | 4 (≈ 4.05 µM) | > 32 | > 32 | > 32 | > 32 | ≤ 0.0312 | 0.5 | ≤ 0.0312 | MIC (E. coli; [21]): 16 µg/mL (≈ 16.2 µM); MIC (E. coli; [22]): > 32 µg/mL; MIC (E. coli; [23]): > 32 µg/mL; MIC (E. coli; [24]): 16 µg/mL (≈ 16.2 µM); MIC (K. pneumoniae; [25]): 4 µg/mL (≈ 4.05 µM); MIC (K. pneumoniae; [26]): 32 µg/mL (≈ 32.4 µM); MIC (K. pneumoniae; [27]): > 32 µg/mL; MIC (K. pneumoniae; [28]): 8 µg/mL (≈ 8.1 µM)
